# Assay results as given in patent US20220282217A1, “COMPOSITIONS AND METHODS FOR PREPARING T CELL COMPOSITIONS AND USES THEREOF” (priority 2019, published 2022).
# Read-outs that look alike come from different tables or passages of the source. Where a SMILES comes first, the peptide text is derived from it.
# Target: HLA-A02.01 (Homo sapiens, UniProt P04439, D140Y/D185E/D98H/E176V/E277Q/G131W/G231S/I119V/I121R/I166T/I218V/L300P/L318F/N151K/N90K/P208A/P217A/Q86G/Q94H/R138H/R169H/T345S)
# Experiment: Class I MHC peptide binding affinity (displacement of radiolabeled reference peptide)
# Details: for IC50: allele A02.01, (nM))
# Procedure, shortened: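 Displacement format in which varying amounts of peptide compete for 2 days with a radiolabeled reference ligand prebound to class I MHC, residual complex-associated label being measured after gel-filtration separation.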
# [1] = read-out: Observed Affinity (IC50
SMILES,"Kd (EGFR T790M peptides, HLA allele A02.01, read-out: Affinity)",IC50 [1],IC50 (Observed Affinity (IC50)
CC[C@H](C)[C@H](NC(=O)[C@@H](N)CC(C)C)C(=O)N[C@@H](CCSC)C(=O)N[C@@H](CCC(N)=O)C(=O)N[C@@H](CC(C)C)C(=O)N[C@@H](CCSC)C(=O)N1CCC[C@H]1C(=O)N[C@@H](Cc1ccccc1)C(=O)NCC(=O)O (H-LIMQLMPFG-OH; N-terminus and C-terminus assumed),3340 nM,3510 nM,
CC[C@H](C)[C@H](NC(=O)[C@@H](N)CC(C)C)C(=O)N[C@H](C(=O)N[C@@H](CO)C(=O)N[C@@H](CCCNC(=N)N)C(=O)N[C@H](C(=O)N[C@@H](CC(C)C)C(=O)N[C@@H](CC(C)C)C(=O)N[C@@H](CC(C)C)C(=O)N[C@H](C(=O)O)C(C)C)[C@@H](C)O)C(C)C (H-LIVSRTLLLV-OH; N-terminus and C-terminus assumed),,10900 nM,
CC[C@H](C)[C@H](NC(=O)[C@H](CC(=O)O)NC(=O)[C@H](CC(C)C)NC(=O)[C@@H](N)CC(C)C)C(=O)N[C@@H](CC(C)C)C(=O)N[C@@H](CC(=O)O)C(=O)N[C@H](C(=O)N[C@@H](C)C(=O)NCC(=O)N[C@@H](CC(C)C)C(=O)O)[C@@H](C)O (H-LLDILDTAGL-OH; N-terminus and C-terminus assumed),,,716 nM
CC(C)C[C@H](NC(=O)[C@@H](N)CC(C)C)C(=O)NCC(=O)N[C@@H](CCCNC(=N)N)C(=O)N[C@@H](CC(N)=O)C(=O)N[C@@H](CO)C(=O)N[C@@H](Cc1ccccc1)C(=O)N[C@@H](CCC(=O)O)C(=O)N[C@H](C(=O)N[C@@H](CS)C(=O)O)C(C)C (H-LLGRNSFEVC-OH; N-terminus and C-terminus assumed),,2080 nM,
CC(C)C[C@H](NC(=O)[C@@H]1CCCN1C(=O)[C@@H]1CCCN1C(=O)[C@@H](NC(=O)[C@H](CC(=O)O)NC(=O)[C@H](CCC(=O)O)NC(=O)[C@@H]1CCCN1C(=O)[C@H](CC(C)C)NC(=O)[C@@H](N)CC(C)C)[C@@H](C)O)C(=O)O (H-LLPEDTPPL-OH; N-terminus and C-terminus assumed),,2.8 nM,
CC(C)C[C@H](NC(=O)[C@@H](N)CC(C)C)C(=O)N[C@@H](CCC(N)=O)C(=O)N[C@@H](CCC(=O)O)C(=O)N[C@@H](Cc1ccccc1)C(=O)N[C@@H](CC(=O)O)C(=O)N[C@H](C(=O)N[C@@H](CCC(N)=O)C(=O)N[C@@H](CCC(=O)O)C(=O)N[C@@H](C)C(=O)O)C(C)C (H-LLQEFDVQEA-OH),,45 nM,
CC(C)C[C@H](NC(=O)[C@@H](N)CC(C)C)C(=O)N[C@@H](CCC(N)=O)C(=O)N[C@H](C(=O)N[C@H](C(=O)N[C@@H](CCC(N)=O)C(=O)N[C@H](C(=O)N[C@@H](CO)C(=O)N[C@@H](Cc1ccccc1)C(=O)N[C@@H](C)C(=O)O)[C@@H](C)O)[C@@H](C)O)C(C)C (H-LLQVTQTSFA-OH; N-terminus and C-terminus assumed),,677 nM,
CC(C)C[C@H](NC(=O)[C@@H](N)CC(C)C)C(=O)N[C@@H](CO)C(=O)N[C@H](C(=O)N1CCC[C@H]1C(=O)N1CCC[C@H]1C(=O)N[C@@H](CC(C)C)C(=O)N[C@@H](CO)C(=O)N1CCC[C@H]1C(=O)N[C@@H](CO)C(=O)O)[C@@H](C)O (H-LLSTPPLSPS-OH; N-terminus and C-terminus assumed),,,1770 nM
CC(C)C[C@H](NC(=O)[C@H](CCCNC(=N)N)NC(=O)[C@@H](NC(=O)[C@@H](N)CC(C)C)C(C)C)C(=O)N[C@@H](CO)C(=O)N[C@@H](CO)C(=O)N[C@@H](CS)C(=O)N[C@H](C(=O)N1CCC[C@H]1C(=O)N[C@H](C(=O)O)C(C)C)C(C)C (H-LVRLSSCVPV-OH; N-terminus and C-terminus assumed),,1240 nM,
CSCC[C@H](N)C(=O)N[C@@H](CO)C(=O)N[C@H](C(=O)N[C@@H](CS)C(=O)N[C@@H](Cc1ccccc1)C(=O)N[C@@H](Cc1ccccc1)C(=O)N[C@@H](Cc1ccccc1)C(=O)N[C@@H](Cc1ccccc1)C(=O)N[C@@H](CO)C(=O)N[C@H](C(=O)O)C(C)C)C(C)C (H-MSVCFFFFSV-OH; N-terminus and C-terminus assumed),,1710 nM,
CC[C@H](C)[C@H](NC(=O)[C@@H](NC(=O)[C@@H](NC(=O)[C@H](CC(C)C)NC(=O)[C@@H](NC(=O)[C@@H]1CCCN1C(=O)[C@H](CCCNC(=N)N)NC(=O)[C@H](CCC(N)=O)NC(=O)[C@@H](N)CC(N)=O)[C@@H](C)CC)[C@@H](C)O)[C@@H](C)CC)C(=O)O (H-NQRPILTII-OH; N-terminus and C-terminus assumed),,9610 nM,
CC(C)[C@H](NC(=O)[C@H](Cc1c[nH]cn1)NC(=O)[C@@H](NC(=O)[C@H](CCC(=O)O)NC(=O)[C@H](Cc1ccccc1)NC(=O)[C@H](CO)NC(=O)[C@@H](N)CC(N)=O)C(C)C)C(=O)N[C@@H](CS)C(=O)N[C@@H](C)C(=O)O (H-NSFEVHVCA-OH; N-terminus and C-terminus assumed),,503 nM,
CC(C)C[C@H](NC(=O)[C@H](CC(C)C)NC(=O)[C@H](CC(=O)O)NC(=O)[C@H](CS)NC(=O)[C@H](CC(C)C)NC(=O)[C@@H]1CCCN1C(=O)[C@@H](NC(=O)[C@@H](NC(=O)[C@@H](N)CC(N)=O)C(C)C)C(C)C)C(=O)O (H-NVVPLCDLL-OH; N-terminus and C-terminus assumed),,3030 nM,
CC(C)C[C@H](NC(=O)[C@H](CC(C)C)NC(=O)[C@H](CC(C)C)NC(=O)[C@H](CC(=O)O)NC(=O)[C@H](CS)NC(=O)[C@H](CC(C)C)NC(=O)[C@@H]1CCCN1C(=O)[C@@H](NC(=O)[C@@H](NC(=O)[C@@H](N)CC(N)=O)C(C)C)C(C)C)C(=O)O (H-NVVPLCDLLL-OH; N-terminus and C-terminus assumed),,1370 nM,
CC(C)C[C@H](NC(=O)[C@H](CC(C)C)NC(=O)[C@H](CC(=O)O)NC(=O)[C@H](CC(N)=O)NC(=O)[C@H](CC(C)C)NC(=O)[C@@H]1CCCN1C(=O)[C@@H](NC(=O)[C@@H](NC(=O)[C@@H](N)CC(N)=O)C(C)C)C(C)C)C(=O)O (H-NVVPLNDLL-OH; N-terminus and C-terminus assumed),,2900 nM,
CC(C)C[C@H](NC(=O)[C@H](CC(C)C)NC(=O)[C@H](CC(C)C)NC(=O)[C@H](CC(=O)O)NC(=O)[C@H](CC(N)=O)NC(=O)[C@H](CC(C)C)NC(=O)[C@@H]1CCCN1C(=O)[C@@H](NC(=O)[C@@H](NC(=O)[C@@H](N)CC(N)=O)C(C)C)C(C)C)C(=O)O (H-NVVPLNDLLL-OH; N-terminus and C-terminus assumed),,4190 nM,
CC(C)C[C@H](NC(=O)[C@H](CC(C)C)NC(=O)[C@H](CC(=O)O)NC(=O)[C@H](CO)NC(=O)[C@H](CC(C)C)NC(=O)[C@@H]1CCCN1C(=O)[C@@H](NC(=O)[C@@H](NC(=O)[C@@H](N)CC(N)=O)C(C)C)C(C)C)C(=O)O (H-NVVPLSDLL-OH; N-terminus and C-terminus assumed),,916 nM,
CC(C)C[C@H](NC(=O)[C@H](CC(C)C)NC(=O)[C@H](CC(C)C)NC(=O)[C@H](CC(=O)O)NC(=O)[C@H](CO)NC(=O)[C@H](CC(C)C)NC(=O)[C@@H]1CCCN1C(=O)[C@@H](NC(=O)[C@@H](NC(=O)[C@@H](N)CC(N)=O)C(C)C)C(C)C)C(=O)O (H-NVVPLSDLLL-OH; N-terminus and C-terminus assumed),,741 nM,
CC(C)C[C@H](NC(=O)[C@H](CC(C)C)NC(=O)CNC(=O)[C@H](Cc1ccc(O)cc1)NC(=O)[C@H](CC(C)C)NC(=O)[C@@H]1CCCN1C(=O)[C@@H](NC(=O)[C@@H](NC(=O)[C@@H](N)CC(N)=O)C(C)C)C(C)C)C(=O)O (H-NVVPLYGLL-OH; N-terminus and C-terminus assumed),,10500 nM,
